Measurements as given in the supplement of paper PMC10307832.

What was measured:
Experiment in all cases: relative viability (nuclei count vs DMSO), 5 days (fraction); higher = more cells survive
Alpelisib + Crizotinib = compound: Cc1nc(NC(=O)N2CCC[C@H]2C(N)=O)sc1-c1ccnc(C(C)(C)C(F)(F)F)c1 [Alpelisib] + C[C@@H](Oc1cc(-c2cnn(C3CCNCC3)c2)cnc1N)c1c(Cl)ccc(F)c1Cl [Crizotinib] (partner 1 µM)
In short: (§1)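 Medians of duplicate plates are given as relative viability. That measure is the nuclei count in treated wells divided by the count in vehicle wells. Counts were taken on 4× images of lung cancer cell lines in 1536-well plates, 5 days after pin-tool dosing the day after seeding with one drug alone or a fixed anchor-drug dose plus five library-drug doses (not always all listed) in √10 steps.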

OSI-027 + Vorinostat = compound: COc1cccc2cc(-c3nc([C@H]4CC[C@H](C(=O)O)CC4)n4ncnc(N)c34)[nH]c12 [OSI-027] + O=C(CCCCCCC(=O)Nc1ccccc1)NO [Vorinostat] (partner 1 µM)
In short: as §1

OSI-027 + Luminespib = compound: COc1cccc2cc(-c3nc([C@H]4CC[C@H](C(=O)O)CC4)n4ncnc(N)c34)[nH]c12 [OSI-027] + CCNC(=O)c1noc(-c2cc(C(C)C)c(O)cc2O)c1-c1ccc(CN2CCOCC2)cc1 [Luminespib] (partner 0.01 µM)
In short: as §1

Alpelisib + Vorinostat = compound: Cc1nc(NC(=O)N2CCC[C@H]2C(N)=O)sc1-c1ccnc(C(C)(C)C(F)(F)F)c1 [Alpelisib] + O=C(CCCCCCC(=O)Nc1ccccc1)NO [Vorinostat] (partner 1 µM)
In short: as §1

Row | Cell Line | relative viability (Alpelisib + Crizotinib; first compound 0.04 µM) | relative viability (Alpelisib + Crizotinib; first compound 0.1265 µM) | relative viability (Alpelisib + Crizotinib; first compound 0.4 µM) | relative viability (Alpelisib + Crizotinib; first compound 1.265 µM) | relative viability (Alpelisib + Crizotinib; first compound 4 µM) | relative viability (OSI-027 + Vorinostat; first compound 0.01 µM) | relative viability (OSI-027 + Vorinostat; first compound 0.03162 µM) | relative viability (OSI-027 + Vorinostat; first compound 0.1 µM) | relative viability (OSI-027 + Vorinostat; first compound 0.3162 µM) | relative viability (OSI-027 + Vorinostat; first compound 1 µM) | relative viability (OSI-027 + Luminespib; first compound 0.01 µM) | relative viability (OSI-027 + Luminespib; first compound 0.03162 µM) | relative viability (OSI-027 + Luminespib; first compound 0.1 µM) | relative viability (OSI-027 + Luminespib; first compound 0.3162 µM) | relative viability (OSI-027 + Luminespib; first compound 1 µM) | relative viability (Alpelisib + Vorinostat; first compound 0.04 µM) | relative viability (Alpelisib + Vorinostat; first compound 0.1265 µM) | relative viability (Alpelisib + Vorinostat; first compound 0.4 µM) | relative viability (Alpelisib + Vorinostat; first compound 1.265 µM) | relative viability (Alpelisib + Vorinostat; first compound 4 µM)
1 | NCI-H1437 | 0.904 | 0.919 | 1 | 0.906 | 0.942 | 0.859 | 0.767 | 0.861 | 0.848 | 0.521 | 1.08 | 1.12 | 1.16 | 1.14 | 0.806 | 0.886 | 0.886 | 0.963 | 0.734 | 0.692
2 | NCI-H1650 | 1.01 | 0.941 | 1.02 | 0.847 | 0.956 | 0.56 | 0.515 | 0.532 | 0.407 | 0.358 | 0.208 | 0.234 | 0.208 | 0.214 | 0.219 | 0.585 | 0.599 | 0.756 | 0.491 | 0.368
3 | NCI-H1651 | 0.845 | 0.906 | 0.889 | 0.784 | 0.694 | 0.57 | 0.482 | 0.509 | 0.528 | 0.469 | 0.866 | 0.691 | 1.08 | 0.79 | 0.725 | 0.534 | 0.619 | 0.552 | 0.517 | 0.504
4 | NCI-H1666 | 0.914 | 0.87 | 0.932 | 0.765 | 0.747 | 0.993 | 1.02 | 1.01 | 0.915 | 0.667 | 1.01 | 1 | 0.996 | 0.891 | 0.915 | 0.978 | 1.1 | 1.07 | 0.876 | 0.727
5 | NCI-H1734 | 0.633 | 0.605 | 0.715 | 0.506 | 0.382 | 0.912 | 0.781 | 0.728 | 0.707 | 0.455 | 0.174 | 0.179 | 0.203 | 0.166 | 0.178 | 0.726 | 0.686 | 0.822 | 0.642 | 0.375
6 | NCI-H1755 | 0.828 | 0.819 | 0.966 | 0.801 | 0.578 | 0.72 | 0.855 | 0.655 | 0.711 | 0.472 | 0.577 | 0.533 | 0.369 | 0.382 | 0.416 | 0.774 | 0.71 | 0.873 | 0.605 | 0.632
7 | NCI-H1915 | 0.903 | 0.936 | 0.988 | 0.78 | 0.8 | 0.542 | 0.502 | 0.479 | 0.426 | 0.34 | 1.04 | 0.972 | 0.862 | 0.687 | 0.562 | 0.543 | 0.543 | 0.577 | 0.448 | 0.509
8 | NCI-H1944 | 1.01 | 1.24 | 1.14 | 0.725 | 0.523 | 0.571 | 0.543 | 0.575 | 0.431 | 0.378 | 0.856 | 0.82 | 0.537 | 0.534 | 0.273 | 0.538 | 0.554 | 0.597 | 0.399 | 0.326
9 | NCI-H1975 | 0.877 | 1.01 | 0.968 | 0.753 | 0.68 | 0.722 | 0.647 | 0.672 | 0.657 | 0.496 | 0.232 | 0.195 | 0.157 | 0.121 | 0.187 | 0.696 | 0.674 | 0.61 | 0.426 | 0.402
10 | NCI-H1993 | 0.817 | 0.845 | 0.799 | 0.603 | 0.604 | 0.86 | 0.967 | 0.717 | 0.474 | 0.449 | 0.815 | 0.795 | 0.71 | 0.498 | 0.548 | 0.751 | 0.815 | 0.909 | 0.596 | 0.64
11 | NCI-H2009 | 1.04 | 1.02 | 1.11 | 0.953 | 0.831 | 0.735 | 0.718 | 0.708 | 0.675 | 0.588 | 1.08 | 1.06 | 1.05 | 0.924 | 0.603 | 0.675 | 0.711 | 0.784 | 0.669 | 0.658
12 | NCI-H2023 | 0.53 | 0.565 | 0.476 | 0.389 | 0.257 | 0.7 | 0.698 | 0.526 | 0.581 | 0.34 | 0.812 | 0.59 | 0.646 | 0.709 | 0.27 | 0.595 | 0.634 | 0.61 | 0.394 | 0.348
13 | NCI-H2085 | 0.808 | 0.769 | 0.758 | 0.814 | 0.796 | 0.714 | 0.73 | 0.76 | 0.648 | 0.549 | 0.647 | 0.437 | 0.439 | 0.341 | 0.231 | 0.801 | 0.686 | 0.888 | 0.754 | 0.633
14 | NCI-H2087 | 0.781 | 0.892 | 0.958 | 0.732 | 0.658 | 0.971 | 0.769 | 0.613 | 0.815 | 0.161 | 0.143 | 0.166 | 0.176 | 0.133 | 0.158 | 0.808 | 0.669 | 0.583 | 0.647 | 0.853
15 | NCI-H2126 | 1.02 | 0.957 | 0.992 | 0.88 | 0.735 | 0.703 | 0.682 | 0.692 | 0.627 | 0.586 | 0.93 | 1.01 | 0.85 | 0.575 | 0.547 | 0.717 | 0.565 | 0.67 | 0.5 | 0.457
16 | NCI-H2170 | 1.08 | 1.17 | 1.23 | 0.729 | 0.71 | 0.779 | 0.814 | 0.806 | 0.662 | 0.454 | 0.844 | 0.639 | 0.565 | 0.544 | 0.176 | 0.731 | 0.663 | 0.914 | 0.551 | 0.484
17 | NCI-H2228 | 0.514 | 0.402 | 0.403 | 0.303 | 0.304 | 0.509 | 0.511 | 0.528 | 0.564 | 0.45 | 0.165 | 0.162 | 0.0954 | 0.122 | 0.111 | 0.714 | 0.48 | 0.401 | 0.566 | 0.413
18 | NCI-H2347 | 0.674 | 0.897 | 0.859 | 0.603 | 0.61 | 0.556 | 0.403 | 0.55 | 0.447 | 0.339 | 0.283 | 0.339 | 0.604 | 0.279 | 0.288 | 0.524 | 0.598 | 0.766 | 0.555 | 0.49
19 | NCI-H2405 | 0.858 | 0.772 | 0.889 | 0.662 | 0.735 | 1.04 | 1.02 | 0.899 | 0.831 | 0.549 | 0.678 | 0.647 | 0.559 | 0.479 | 0.443 | 1.13 | 1.06 | 1.06 | 0.682 | 0.59
20 | NCI-H3122 | 0.27 | 0.308 | 0.227 | 0.196 | 0.2 | 0.991 | 1.09 | 1.06 | 0.93 | 0.732 | 0.0994 | 0.0843 | 0.054 | 0.0869 | 0.0772 | 0.783 | 0.985 | 1.28 | 1.01 | 0.491
21 | PC-3 [JPC-3] | 1.03 | 1.05 | 1.07 | 0.901 | 0.969 | 0.649 | 0.787 | 0.454 | 0.56 | 0.527 | 0.839 | 0.553 | 0.661 | 0.598 | 0.332 | 0.877 | 0.699 | 1.12 | 0.638 | 0.514
22 | PC-14 | 0.817 | 0.893 | 1.04 | 0.842 | 0.766 | 0.734 | 0.72 | 0.585 | 0.698 | 0.445 | 0.146 | 0.108 | 0.126 | 0.17 | 0.17 | 0.771 | 0.681 | 0.717 | 0.432 | 0.624
23 | RERF-LC-KJ | 0.76 | 0.77 | 0.83 | 0.787 | 0.741 | 0.647 | 0.685 | 0.595 | 0.529 | 0.426 | 1.41 | 1.09 | 1.08 | 1.09 | 0.459 | 0.634 | 0.707 | 0.754 | 0.504 | 0.548
24 | SK-LU-1 | 0.987 | 0.792 | 1.01 | 0.773 | 0.763 | 0.809 | 0.618 | 0.682 | 0.563 | 0.411 | 0.188 | 0.198 | 0.173 | 0.181 | 0.152 | 0.817 | 0.775 | 0.847 | 0.676 | 0.689
25 | SK-MES-1 | 1.03 | 0.875 | 0.968 | 0.83 | 0.67 | 1.21 | 1.08 | 0.972 | 0.913 | 0.593 | 0.75 | 0.63 | 0.731 | 0.554 | 0.227 | 1.13 | 1.09 | 1.15 | 0.828 | 0.833
26 | SW 1573 | 0.867 | 0.784 | 0.689 | 0.649 | 0.593 | 0.818 | 0.718 | 0.669 | 0.728 | 0.393 | 0.235 | 0.19 | 0.184 | 0.214 | 0.13 | 0.833 | 0.684 | 0.678 | 0.388 | 0.584
